We go through three compounds from BindingDB's records for doi:10.1021/jm300491y (San Francisco State University, 2012).

SMILES strings stand for the structures.

A short description of this assay: Inhibition of UT-B in wild type CD1 mouse erythrocyte assessed as hemolysis after 10 mins.
`CCc1ccc(S(=O)(=O)c2nnn3c2nc(N2CCOCC2)c2sccc23)cc1`: the IC50 (in general, the midpoint of a concentration-inhibition curve) came to 5.6 µM.

Turning to `Cc1ccc(S(=O)(=O)c2nnn3c2nc(N2CCCCC2)c2sccc23)cc1C`, the IC50 was greater than 25 µM.

As to `CC(C)c1ccc(S(=O)(=O)c2nnn3c2nc(NCc2cccc4ccccc24)c2sccc23)cc1`, the IC50 is greater than 2.5 µM.
